Data from US20100167397A1, “ENDOCRINE CELL LINES AND METHOD OF USING THE SAME” (KYOWA HAKKO KOGYO CO., LTD., priority 2002, published 2010).
No end group written: not given here.

Key:
GPR43 = molecular target: T1, GPR43 (Homo sapiens, UniProt O15552); assay: Screening ligands or agonists of GPR43 (pAGal9-GPR43 in GBCRC6, Renilla luciferase); type: cell-based; details: 100 μmol/L; 6 hours
T1 construct: expressed in transfected cells; host or cells: GBCRC6 (Namalwa KJM-1 derived, co-expressing Gαs-q and Gαs-i)
T1 sequence (O15552 1-330): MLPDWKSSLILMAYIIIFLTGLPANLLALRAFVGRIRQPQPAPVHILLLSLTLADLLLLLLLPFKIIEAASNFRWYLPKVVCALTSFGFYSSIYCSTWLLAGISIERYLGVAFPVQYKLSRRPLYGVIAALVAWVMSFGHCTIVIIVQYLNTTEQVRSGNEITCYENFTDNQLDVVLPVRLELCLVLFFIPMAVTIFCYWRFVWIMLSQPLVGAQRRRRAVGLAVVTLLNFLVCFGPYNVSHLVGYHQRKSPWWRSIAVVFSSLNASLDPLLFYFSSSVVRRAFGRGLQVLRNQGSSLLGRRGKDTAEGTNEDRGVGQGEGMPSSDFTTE
Experimental: According to the method mentioned in (1) of Example 20, the GPR43 gene was prepared by PCR and the gene was inserted in an expression vector pAGal9-d to construct pAGal9-GPR43 which is an inducible expression plasmid of GPR43. With regard to a template, human chromosomal DNA (100 ng; manufactured by Clontech) was used. With regard to the GPR43 gene-specific primers, synthetic DNA having sequences mentioned in SEQ ID NOS: 181 and 182, respectively, were used. A HindIII site and a NotI site were introduced to the above primers, respectively.
PCR-amplified fragment was cleaved with HindIII and NotI to prepare a HindIII-NotI fragment. A plasmid pAGal9-d was cleaved with HindIII and NotI to prepare a HindIII-NotI fragment.
According to the method mentioned in (1) of Example 21, pAGal9-GPR43 was transfected to GBCRC6 to prepare stable transformants.

GPR41 = molecular target: T2, GPR41 (Homo sapiens, UniProt O14843); assay: Screening of ligands or agonists of GPR41 (pAGal9-GPR41 in GBCRC6, Renilla luciferase); type: cell-based; details: for induction ratio of the reporters (agonist for GPR41): 100 μmol/L, 6 hours
T2 construct: expressed in transfected cells; host or cells: GBCRC6 (Namalwa KJM-1 derived)
T2 sequence (O14843 1-346): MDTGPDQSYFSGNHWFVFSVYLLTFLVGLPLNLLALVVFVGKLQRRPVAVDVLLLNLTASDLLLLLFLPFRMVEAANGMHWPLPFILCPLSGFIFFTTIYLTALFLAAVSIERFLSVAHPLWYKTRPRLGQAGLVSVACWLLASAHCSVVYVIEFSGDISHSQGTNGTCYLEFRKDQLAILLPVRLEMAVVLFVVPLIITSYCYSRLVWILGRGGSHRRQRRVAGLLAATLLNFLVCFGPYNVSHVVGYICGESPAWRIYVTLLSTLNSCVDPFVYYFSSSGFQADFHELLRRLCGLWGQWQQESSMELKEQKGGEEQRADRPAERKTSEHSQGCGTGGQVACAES
Experimental: With regard to a template, human chromosomal DNA (100 ng; manufactured by Clontech) was used. With regard to the GPR41 gene-specific primers, synthetic DNAs having sequences mentioned in SEQ ID NOS: 183 and 184, respectively, were used. To the above primers, a HindIII site and a NotI site were introduced, respectively. A PCR-amplified fragment was cleaved with HindIII and NotI to prepare a HindIII-NotI fragment. A plasmid […] was cleaved with HindIII and NotI to prepare a HindIII-NotI fragment. The HindIII-NotI fragment derived from PCR fragment and the HindIII-NotI fragment derived from […] were ligated to construct pAGal9-GPR41 which was an inducible expression plasmid of GPR41.

[1] = molecular target: T3, melanocortin receptor type 1 (MC1R) (Homo sapiens, UniProt Q01726); assay: MC1R reporter assay in GBCR2 (pAGal9-MC1R), Renilla reniformis luciferase; type: cell-based; details: GBCR2 with pAGal9-MC1R, 17β-estradiol 10 nmol/L 24 hours; various concentrations, 6 hours
T3 construct: expressed in transfected cells; host or cells: GBCR2 (Namalwa KJM-1 derived)
T3 sequence (Q01726 whole entry): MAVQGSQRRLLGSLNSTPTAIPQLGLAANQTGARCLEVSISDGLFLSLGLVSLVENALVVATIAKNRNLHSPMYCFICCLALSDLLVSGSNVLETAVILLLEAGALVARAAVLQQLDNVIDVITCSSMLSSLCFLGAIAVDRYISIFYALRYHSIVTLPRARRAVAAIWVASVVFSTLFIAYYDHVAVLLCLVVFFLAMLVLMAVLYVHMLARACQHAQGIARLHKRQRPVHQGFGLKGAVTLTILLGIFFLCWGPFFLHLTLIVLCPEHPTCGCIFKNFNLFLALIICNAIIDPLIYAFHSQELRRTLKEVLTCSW
Experimental: One of the plasmids was named pAGal9-MC1R. The nucleotide sequence was determined by the method mentioned in the above (2).
According to the method mentioned in (1) of Example 21, pAGal9-MC1R was transfected to GBCR2 to prepare stable transformants.

GPR12 = assay: Host clone selection: inducible expression of GPR12 (pAGal9-GPR12) by 17β-estradiol, CRE-luciferase readout; type: cell-based; details: 24 hours; for rising rate of luciferase activity upon addition of 17β-estradiol: 10 nmol/L, firefly luciferase
Experimental: To the 8 clones was transfected pAGal9-GPR12 [a plasmid for inducible expression of GPR12 which is a constitutively activated G-protein coupled receptor: refer to Example 22 which will be mentioned later] by the above electroporation method using 4 μg to 6×10^6 cells to prepare transformants.
pAGal9-GPR12 was transfected to the 2 clones to prepare stable transformants.

other GPCRs = assay: Specificity: assay cells to which other GPCRs were transfected; type: cell-based
gene expression via CRE = assay: CRE-luciferase reporter stimulation in Namalwa KJM-1 / KJMGER8 cells carrying pACREpluc or pACRERluc; type: cell-based, human
Experimental: A reporter plasmid pACREpluc was dissolved in a TE buffer so as to make 1 μg/μl and the plasmid was transfected to Namalwa KJM-1 cells by an electroporation method [Cytotechnology, 3, 133 (1990)] using 4 μg to 6×10^6 cells to give transformants.
The transformants were subcultured in RPMI 1640-ITPSG medium containing hygromycin B (300 μg/ml).
In order to confirm whether gene expression via CRE took place, the transformants were stimulated under the following condition using 5′-N-ethylcarboxamide adenosine (NECA: manufactured by Sigma) which is an agonist of type 2a adenosine receptor (A2a), forskolin (manufactured by Sigma) which is an activator for adenylate cyclase or A23187 (manufactured by Research Biochemicals International) which is a calcium ionophore.
Thus, the above stable transformants were dispensed in an amount of 1×10^5 cells per well of a 48-well plate, then NECA (final concentration 100 nmol/L), forskolin (final concentration 100 μmol/L) or A23187 (final concentration 10 μmol/L) was added and stimulation was conducted by incubating in a CO2 incubator for 5 hours.
Accordingly, when the cells are stimulated by any substance, it is believed to be preferred to measure the activity after 6 hours from the stimulation.
After the incubation, firefly luciferase activity in each well was measured using the method mentioned in (4) of Example 18. With regard to a device for the measurement, Micro Lumat LB96P (manufactured by Berthold) was used. Seventeen clones having high activity were selected.
The 17 clones were used, stimulation with NECA was applied by the same manner as in the above (2), comparison with the case where no stimulation with NECA was conducted and 8 clones where luciferase activity rose to an extent of 60-fold or more were selected. Such 8 clones were named GBC1 to GBC8 respectively.
After that, coelenterazine h (Molecular Probes) (final concentration 250 nmol/L) was added to measure the activity of Renilla reniformis luciferase. For the measurement of the activity, a Wallac 1420 ARVOsx Multilable Counter (manufactured by Wallac Berthold Japan) was used. Nine clones having high activity were selected. The 9 clones were named GBCR1 to GBCR9, respectively.
With regard to the 9 clones, stimulation with NECA was conducted and, as compared with the case no stimulation with NECA was done, 2 clones where the activity of Renilla reniformis luciferase increased to an extent of not less than 18-fold were selected. The 2 clones were named GBCR1 and GBCR2, respectively.

CRE reporter in KJMGER8 = assay: Constitutive activity of GPCR, Method 5 (KJMGER8 co-transfected with pACREpluc, firefly luciferase); type: cell-based, human; details: 17β-estradiol 10 nmol/L, 1 day, activity with divided by activity without, control plasmid about 1
Experimental: After the cultivation, firefly luciferase activity was measured. […] It is judged that the higher the induction ratio of the cells to which a GPCR expression plasmid was transfected, the stronger the constitutive activity of the GPCR.

G10d = molecular target: T4, G10d (Homo sapiens, UniProt O15218); assay: Screening of ligands or agonists of G10d (pAGal9-G10d in GBCRC6, Renilla luciferase); type: cell-based; details: 6 hours
T4 construct: expressed in transfected cells; host or cells: GBCRC6 (Namalwa KJM-1 derived)
T4 sequence (O15218 whole entry): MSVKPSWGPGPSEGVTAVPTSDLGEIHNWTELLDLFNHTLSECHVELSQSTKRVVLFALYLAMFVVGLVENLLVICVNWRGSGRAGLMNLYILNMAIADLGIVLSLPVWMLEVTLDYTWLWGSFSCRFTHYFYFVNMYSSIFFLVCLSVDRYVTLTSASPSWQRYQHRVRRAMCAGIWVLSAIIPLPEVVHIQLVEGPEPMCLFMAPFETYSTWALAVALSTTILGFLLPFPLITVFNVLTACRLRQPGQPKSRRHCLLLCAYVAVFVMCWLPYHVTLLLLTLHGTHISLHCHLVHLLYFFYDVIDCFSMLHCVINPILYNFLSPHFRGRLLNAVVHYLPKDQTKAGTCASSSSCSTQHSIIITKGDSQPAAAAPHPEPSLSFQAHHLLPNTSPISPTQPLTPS
Experimental: According to the method mentioned in (1) of Example 20, the G10d gene was prepared by PCR and the gene was inserted in an expression vector pAGal9-d to construct pAGal9-G10d which is an inducible expression plasmid of G10d. With regard to a template, single-stranded DNAs derived from human spleen were used. With regard to the G10d gene-specific primers, synthetic DNAs having sequences mentioned in SEQ ID NOS: 185 and 186 were used. To the above primers, a HindIII site and a NotI site were introduced, respectively.
A PCR-amplified fragment was cleaved with HindIII and NotI to prepare a HindIII-NotI fragment. A plasmid pAGal9-d was cleaved with HindIII and NotI to prepare a HindIII-NotI fragment.
(§1) According to the method mentioned in (1) of Example 21, pAGal9-G10d was transfected to GBCRC6 to prepare stable transformants. […] It is possible to screen an antagonist for G10d using α-MSH or ACTH as an agonist.

[2] = system: GBCRC6 to which control vector (pAGal9-d) was transfected; assay: Control: GBCRC6 to which control vector (pAGal9-d) was transfected; type: cell-based, human
Text: as §1

CCC(=O)O [propionic acid]
induction ratio of the reporter (agonist for GPR43) (GPR43): 5 fold | induction ratio of the reporters (agonist for GPR41) (GPR41): 21 fold

human PAMP-12: peptide consisting of the 9th to 20th amino acid residues from N terminal of PAMP (FRKKWNKWALSR; ends and bridges not checked; UniProt P35318 30-41, looked up, fragment)
concentration at which MC1R reacts (Renilla luciferase reporter) [1]: very low concentration

C[C@]12CC[C@@H]3c4ccc(O)cc4CC[C@H]3[C@@H]1CC[C@@H]2O [17β-estradiol]
rising rate of luciferase activity upon addition of 17β-estradiol (GPR12; GBC5 with pAGal9-GPR12): 56 fold | rising rate of luciferase activity upon addition of 17β-estradiol (GPR12; GBC6 with pAGal9-GPR12): 193 fold | rising rate of luciferase activity upon addition of 17β-estradiol (GPR12; GBC7 with pAGal9-GPR12): 364 fold | rising rate of Renilla reniformis luciferase activity when 17β-estradiol was added (GPR12; GBCR2 with pAGal9-GPR12): 364 fold

O=C(O)C1CC1 [cyclopropanecarboxylic acid]
action on assay cells to which other GPCRs were transfected (other GPCRs): did not act | induction ratio of the reporters (agonist for GPR41) (GPR41): 22 fold

CCNC(=O)[C@H]1O[C@@H](n2cnc3c(N)ncnc32)[C@H](O)[C@@H]1O [NECA, 5′-N-ethylcarboxamide adenosine]
increase of Renilla reniformis luciferase activity versus no stimulation (gene expression via CRE; 2 clones GBCR1 and GBCR2 (KJMGER8 with integrated pACRERluc), NECA 100 nmol/L): not less than 18 fold | rise of firefly luciferase activity versus no stimulation (gene expression via CRE; 8 clones GBC1 to GBC8 (KJMGER8 with integrated pACREpluc), NECA stimulation): ≥ 60 fold | increase of firefly luciferase activity (gene expression via CRE; Namalwa KJM-1 with pACREpluc, NECA 100 nmol/L, 5 hours): about 7 fold | firefly luciferase activity after 24 hours (gene expression via CRE; Namalwa KJM-1 with pACREpluc, compared with highest activity at 6 hours): decreased to an extent of nearly one half | time after stimulation at which firefly luciferase activity was highest (gene expression via CRE; Namalwa KJM-1 with pACREpluc, measured after 6, 24, 48, 72 and 96 hours): 6 h

GPR 3
Constitutive Activity (induction ratio) (CRE reporter in KJMGER8): 6.5-fold

GPR 26
Constitutive Activity (induction ratio) (CRE reporter in KJMGER8): 26-fold

CC(=O)O [acetate]
induction ratio of the reporter (agonist for GPR43) (GPR43): 9 fold

CC(=O)O [acetic acid]
induction ratio of the reporter (agonist for GPR43) (GPR43): 4 fold | action on assay cells to which other GPCRs were transfected (other GPCRs): did not act | agonist activity to GPR41 (GPR41): did not show an agonist activity

α-MSH: α-melanocyte-stimulating hormone
induction ratio of the reporters (agonist for G10d) (G10d; 100 μmol/L of α-MSH): 10 fold | action on GBCRC6 to which control vector (pAGal9-d) was transfected [2]: did not act

ACTH: adrenocorticotropic hormone (SYSMEHFRWGKPVGKKRRPVKVYPNGAEDESAEAFPLEF)
induction ratio of the reporters (agonist for G10d) (G10d; 100 nmol/L of ACTH): 11 fold | action on GBCRC6 to which control vector (pAGal9-d) was transfected [2]: did not act

CNc1ccc2oc(C[C@H]3O[C@@]4(CC[C@H]3C)O[C@H]([C@H](C)C(=O)c3ccc[nH]3)[C@H](C)C[C@H]4C)nc2c1C(=O)O [A23187]
change of firefly luciferase activity (gene expression via CRE; Namalwa KJM-1 with pACREpluc, A23187 10 μmol/L, 5 hours): rarely changed

human PAMP: peptide comprising 20 amino acids excised from a precursor protein of adrenomedullin (ARLDVASEFRKKWNKWALSR; ends and bridges not checked; UniProt P35318 22-41, looked up)
concentration at which MC1R reacts (Renilla luciferase reporter) [1]: very low concentration

C=C[C@@]1(C)CC(=O)[C@]2(O)[C@@]3(C)[C@@H](O)CCC(C)(C)[C@@H]3[C@H](O)[C@H](OC(C)=O)[C@@]2(C)O1 [forskolin]
increase of firefly luciferase activity (gene expression via CRE; Namalwa KJM-1 with pACREpluc, forskolin 100 μmol/L, 5 hours): about 10 fold
